Type in all cases: in vivo
What all share (conditions): 250 g/ha, evaluated after 13 days, five-point scale

The subject of experiment [1] is Ipomoea hederacea (IPOHE). Kind of experiment: Pre-emergence herbicide glasshouse test. The procedure:
(§1) Seeds of a variety of test species are sown in standard soil in pots Amaranthus retoflexus (AMARE), Amaranthus palmeri (AMAPA), Echinochloa crus-galli (ECHCG), Ipomoea hederacea (IPOHE), Setaria faberi (SETFA). After cultivation for one day (pre-emergence) or after 8 days cultivation (post-emergence) under controlled conditions in a glasshouse (at 24/16° C., day/night; 14 hours light; 65% humidity), the plants are sprayed with an aqueous spray solution derived from the formulation of the technical active ingredient in acetone/water (50:50) solution containing 0.5% Tween 20 (polyoxyethelyene sorbitan monolaurate, CAS RN 9005-64-5). Compounds are applied at 250 g/ha unless otherwise stated. The test plants are then grown in a glasshouse under controlled conditions in a glasshouse (at 24/16° C., day/night; 14 hours light; 65% humidity) and watered twice daily. After 13 days for pre and post-emergence, the test is evaluated for the percentage damage caused to the plant. The biological activities are shown in the following table on a five-point scale (5=81-100%; 4=61-80%; 3=41-60%; 2=21-40%; 1=0-20%).

For experiment [2], the system named is Amaranthus palmeri (AMAPA). Kind of experiment: Pre-emergence herbicide glasshouse test. The procedure:
as §1

The test system of experiment [3] is Setaria faberi (SETFA). Kind of experiment: Pre-emergence herbicide glasshouse test. The procedure:
as §1

Experiment [4] concerns Echinochloa crus-galli (ECHCG). Kind of experiment: Pre-emergence herbicide glasshouse test. The procedure:
as §1

Experiment [5] deals with Amaranthus retoflexus (AMARE). Kind of experiment: Pre-emergence herbicide glasshouse test. The procedure: as §1
Experiment [6] deals with Ipomoea hederacea (IPOHE). Kind of experiment: Post-emergence herbicide glasshouse test. The procedure: as §1
In experiment [7] the test system is Amaranthus palmeri (AMAPA). Kind of experiment: Post-emergence herbicide glasshouse test. The procedure:
as §1

In experiment [8] the test system is Setaria faberi (SETFA). The experiment can be described thus: Post-emergence herbicide glasshouse test. The procedure: as §1
Experiment [9] has as its system Echinochloa crus-galli (ECHCG). Kind of experiment: Post-emergence herbicide glasshouse test. The procedure: as §1
The test system of experiment [10] is Amaranthus retoflexus (AMARE). The experiment can be described thus: Post-emergence herbicide glasshouse test. The procedure:
as §1

Eleven compounds from US20250179051A1, “PYRIMIDINLY-OXY-QUINOLINE BASED HERBICIDAL COMPOUNDS” (SYNGENTA CROP PROTECTION AG, priority 2022, published 2025) can be followed below.

Structures are written as SMILES.

Turning to `CC(=NOCC(F)(F)F)c1nc(C(F)(F)F)nc2cccc(Oc3ncc(Cl)cn3)c12` [Compound 1.018, 1-[5-(5-chloropyrimidin-2-yl)oxy-2-(trifluoromethyl)quinazolin-4-yl]-N-(2,2,2-trifluoroethoxy) ethanimine], the entries for the “percentage damage caused to the plant, IPOHE” value in experiment [1] and in [6] were 1 (1=0-20%) and 2 (2=21-40%), respectively. Besides, the “percentage damage caused to the plant, AMAPA” value in [2] is recorded as 1 (1=0-20%); in experiment [7] it was 2 (2=21-40%). Further, the “percentage damage caused to the plant, SETFA” value with Setaria faberi (SETFA) [3] and in the experiment on Setaria faberi (SETFA) [8] was 1 (1=0-20%) throughout. In addition, the “percentage damage caused to the plant, ECHCG” value in experiment [4] and in experiment [9] was 1 (1=0-20%) throughout. The “percentage damage caused to the plant, AMARE” value in [5] is 1 (1=0-20%); in [10], 2 (2=21-40%).

As for `FC(F)(F)c1nc(CCC2CCCCC2)c2c(Oc3ncc(Cl)cn3)cccc2n1` [Compound 1.045], the “percentage damage caused to the plant, IPOHE” value is reported as 1 (1=0-20%) in experiment [1] and 3 (3=41-60%) in experiment [6]. Moreover, the figures for the “percentage damage caused to the plant, AMAPA” value in experiment [2] and in experiment [7] were 5 (5=81-100%) and 4 (4=61-80%), respectively. For the same compound, the results for the “percentage damage caused to the plant, SETFA” value in the experiment on Setaria faberi (SETFA) [3] and with Setaria faberi (SETFA) [8] were 4 (4=61-80%) and 2 (2=21-40%), respectively. Besides, the “percentage damage caused to the plant, ECHCG” value in experiment [4] was 4 (4=61-80%); in experiment [9], 2 (2=21-40%). The figures for the “percentage damage caused to the plant, AMARE” value in experiment [5] and in experiment [10] were 3 (3=41-60%) and 4 (4=61-80%), respectively.

On to `FC(F)(F)c1nc(CBr)c2c(Oc3ncc(Cl)cn3)cccc2n1` [Compound 1.048, 4-(bromomethyl)-5-(5-chloropyrimidin-2-yl)oxy-2-(trifluoromethyl)quinazoline], for which the “percentage damage caused to the plant, IPOHE” value is listed as 1 (1=0-20%) in experiment [1] and 2 (2=21-40%) in [6]. Besides, the “percentage damage caused to the plant, AMAPA” value in experiment [2] was 5 (5=81-100%); in experiment [7] it was 4 (4=61-80%). Further, the “percentage damage caused to the plant, SETFA” value in the experiment with Setaria faberi (SETFA) [3] and in the experiment on Setaria faberi (SETFA) [8] was 4 (4=61-80%) throughout. Moreover, the “percentage damage caused to the plant, ECHCG” value is on record as 3 (3=41-60%) in experiment [4] and 2 (2=21-40%) in experiment [9]. Also, the “percentage damage caused to the plant, AMARE” value in experiment [5] and in [10] was 5 (5=81-100%) each time.

Consider `CO/N=C/CCc1nc(C(F)(F)F)nc2cccc(Oc3ncc(Cl)cn3)c12` [Compound 1.025, (E)-3-[5-(5-chloropyrimidin-2-yl)oxy-2-(trifluoromethyl)quinazolin-4-yl]-N-methoxy-propan-1-imine], for which the “percentage damage caused to the plant, IPOHE” value in experiment [1] and in [6] was 4 (4=61-80%) throughout. Also, the “percentage damage caused to the plant, AMAPA” value is reported as 5 (5=81-100%) in experiment [2] and 4 (4=61-80%) in experiment [7]. The “percentage damage caused to the plant, SETFA” value with Setaria faberi (SETFA) [3] and with Setaria faberi (SETFA) [8] was 5 (5=81-100%) in each case. The “percentage damage caused to the plant, ECHCG” value in [4] and in [9] was 5 (5=81-100%) each time. For the same compound, the “percentage damage caused to the plant, AMARE” value in experiment [5] and in [10] was 5 (5=81-100%) in each case.

Take `N#CCCc1nc(C(F)(F)F)nc2cccc(Oc3ncc(Cl)cn3)c12` [Compound 1.046, 3-[5-(5-chloropyrimidin-2-yl)oxy-2-(trifluoromethyl)quinazolin-4-yl]propanenitrile]: the entries for the “percentage damage caused to the plant, IPOHE” value in [1] and in experiment [6] were 5 (5=81-100%) and 4 (4=61-80%), respectively. Besides, the “percentage damage caused to the plant, AMAPA” value in experiment [2] and in experiment [7] was 5 (5=81-100%) in each case. Also, the “percentage damage caused to the plant, SETFA” value was 5 (5=81-100%) in the experiment with Setaria faberi (SETFA) [3] and 2 (2=21-40%) in the experiment on Setaria faberi (SETFA) [8]. In addition, the “percentage damage caused to the plant, ECHCG” value was 5 (5=81-100%) in experiment [4] and 2 (2=21-40%) in experiment [9]. Further, the “percentage damage caused to the plant, AMARE” value in [5] is on record as 5 (5=81-100%).

For the compound `OCC(O)CCc1nc(C(F)(F)F)nc2cccc(Oc3ncc(Cl)cn3)c12` (stereo not drawn) [Compound 1.037, 4-[5-(5-chloropyrimidin-2-yl)oxy-2-(trifluoromethyl)quinazolin-4-yl]butane-1,2-diol], the “percentage damage caused to the plant, IPOHE” value in experiment [1] and in experiment [6] was 1 (1=0-20%) throughout. The “percentage damage caused to the plant, AMAPA” value in [2] is on record as 1 (1=0-20%); in experiment [7], 3 (3=41-60%). Moreover, the “percentage damage caused to the plant, SETFA” value in the experiment on Setaria faberi (SETFA) [3] and with Setaria faberi (SETFA) [8] was 1 (1=0-20%) in each case. Also, the “percentage damage caused to the plant, ECHCG” value in experiment [4] and in experiment [9] was 1 (1=0-20%) each time. The figures for the “percentage damage caused to the plant, AMARE” value in [5] and in experiment [10] were 1 (1=0-20%) and 3 (3=41-60%), respectively.

In the case of `Fc1cnc(Oc2cccc3nc(C(F)(F)F)nc(CCC4CC4)c23)nc1` [Compound 1.064], the “percentage damage caused to the plant, IPOHE” value in experiment [1] was 5 (5=81-100%); in experiment [6], 4 (4=61-80%). For the same compound, the figures for the “percentage damage caused to the plant, AMAPA” value in experiment [2] and in experiment [7] were 5 (5=81-100%) and 4 (4=61-80%), respectively. For the same compound, the “percentage damage caused to the plant, ECHCG” value in experiment [4] and in experiment [9] was 4 (4=61-80%) throughout. Also, the “percentage damage caused to the plant, AMARE” value in experiment [5] and in experiment [10] was 5 (5=81-100%) throughout.

As for `Fc1ccc(-c2nc(C(F)(F)F)nc3cccc(Oc4ncc(Cl)cn4)c23)cc1` [Compound 1.042], the “percentage damage caused to the plant, IPOHE” value in [1] was 1 (1=0-20%); in [6], 3 (3=41-60%). The “percentage damage caused to the plant, SETFA” value in the experiment with Setaria faberi (SETFA) [3] and in the experiment on Setaria faberi (SETFA) [8] was 1 (1=0-20%) throughout. Also, the “percentage damage caused to the plant, ECHCG” value in [4] and in experiment [9] was 1 (1=0-20%) throughout. In addition, the “percentage damage caused to the plant, AMARE” value is on record as 1 (1=0-20%) in [5] and 3 (3=41-60%) in [10].

`C=CCCc1nc(C(F)(F)F)nc2cccc(Oc3ncc(Cl)cn3)c12` [Compound 1.043, 4-but-3-enyl-5-(5-chloropyrimidin-2-yl)oxy-2-(trifluoromethyl)quinazoline]: the entries for the “percentage damage caused to the plant, IPOHE” value in [1] and in experiment [6] were 1 (1=0-20%) and 3 (3=41-60%), respectively. The entries for the “percentage damage caused to the plant, SETFA” value in the experiment on Setaria faberi (SETFA) [3] and in the experiment with Setaria faberi (SETFA) [8] were 5 (5=81-100%) and 4 (4=61-80%), respectively. In addition, the “percentage damage caused to the plant, ECHCG” value in experiment [4] is reported as 5 (5=81-100%); in experiment [9], 4 (4=61-80%). Further, the results for the “percentage damage caused to the plant, AMARE” value in experiment [5] and in experiment [10] were 4 (4=61-80%) and 5 (5=81-100%), respectively.

Regarding `FC(F)(F)c1nc(CCC2CCOCC2)c2c(Oc3ncc(Cl)cn3)cccc2n1` [Compound 1.044], the “percentage damage caused to the plant, IPOHE” value in experiment [1] was 5 (5=81-100%); in experiment [6], 4 (4=61-80%). The “percentage damage caused to the plant, SETFA” value in the experiment on Setaria faberi (SETFA) [3] and in the experiment with Setaria faberi (SETFA) [8] was 5 (5=81-100%) throughout. Moreover, the “percentage damage caused to the plant, ECHCG” value in [4] and in [9] was 5 (5=81-100%) in each case. In addition, the “percentage damage caused to the plant, AMARE” value in experiment [5] and in [10] was 5 (5=81-100%) throughout.

`Fc1ccc(-c2nc(C(F)(F)F)nc3cccc(Oc4ncc(Cl)cc4F)c23)cc1` [Compound 1.040]: the “percentage damage caused to the plant, IPOHE” value in experiment [1] is 1 (1=0-20%); in [6], 2 (2=21-40%). For the same compound, the “percentage damage caused to the plant, SETFA” value in the experiment with Setaria faberi (SETFA) [3] and in the experiment on Setaria faberi (SETFA) [8] was 1 (1=0-20%) in each case. Besides, the “percentage damage caused to the plant, ECHCG” value in experiment [4] and in experiment [9] was 1 (1=0-20%) in each case. For the same compound, the “percentage damage caused to the plant, AMARE” value in experiment [5] is 1 (1=0-20%); in experiment [10] it was 2 (2=21-40%).
